Earlier results in PubChem BioAssay AID1259409 (Chemical Carcinogenesis Research Information System (CCRIS), 2018).

Tested on: rodent chemically induced tumor inhibition, incidence and multiplicity
Experiment: CCRIS tumor inhibitor studies
Settings: for tumour outcome (control, treated, inhibition, significance): Species: RAT

C=CCSSCC=C
tumour outcome (control, treated, inhibition, significance) (Carcinogen: 2-AMINO-1-METHYL-6-PHENYLIMIDAZO[4,5-B]PYRIDINE [105650-23-5], Dose [Inhibitor]: 200 PPM IN DIET FOR 4 WK BEGINNING WK PRIOR TO FIRST CARCINOGEN DOSE (STUDY DURATION: 25 WK), Route [Inhibitor]: ORAL, Strain/Sex: SPRAGUE-DAWLEY/FEMALE, Target Tissue: Type of Lesion: MAMMARY GLAND: FIBROADENOMA OR DUCTAL CARCINOMA, Dose [Carcinogen]: 85 MG/KG BW 2X/WK FOR 4 WK (STUDY DURATION: 25 WK), Promoter: NONE): 68%, 52%, 24%, not significant | tumour outcome (control, treated, inhibition, significance) (Carcinogen: 2-AMINO-1-METHYL-6-PHENYLIMIDAZO[4,5-B]PYRIDINE, 105650-23-5, Dose [Inhibitor]: 0, 200 PPM IN HIGH FAT DIET FOR 4 WK BEGINNING 1 WK PRIOR TO CARCINOGEN TREATMENT (STUDY DURATION: 25 WK), Route [Inhibitor]: ORAL, Strain/Sex: SPRAGUE-DAWLEY/FEMALE, Target Tissue: Type of Lesion: MAMMARY GLAND: CARCINOMA, Dose [Carcinogen]: 85 MG/KG BW IN CORN OIL 8 TIMES IN 10 D, Promoter: NONE USED): 21/31 (68%), 16/31 (52%), 24%, not calculated | tumour outcome (control, treated, inhibition, significance) (Carcinogen: 2-AMINO-1-METHYL-6-PHENYLIMIDAZO[4,5-B]PYRIDINE, 105650-23-5, Dose [Inhibitor]: 0, 200 PPM IN HIGH FAT DIET FOR 4 WK BEGINNING 1 WK PRIOR TO CARCINOGEN TREATMENT (STUDY DURATION: 25 WK), Route [Inhibitor]: ORAL, Strain/Sex: SPRAGUE-DAWLEY/FEMALE, Target Tissue: Type of Lesion: MAMMARY GLAND: FIBROADENOMA, Dose [Carcinogen]: 85 MG/KG BW IN CORN OIL 8 TIMES IN 10 D, Promoter: NONE USED): 3/31 (10%), 0/31 (0%), 100%, not calculated | tumour outcome (control, treated, inhibition, significance) (Carcinogen: 7,12-DIMETHYLBENZ[A]ANTHRACENE, 57-97-6, Dose [Inhibitor]: 0, 1.8 MMOL/KG BW IN CORN OIL 96, 48 AND 24 HR PRIOR TO CARCINOGEN TREATMENT (STUDY DURATION: 25 WK), Route [Inhibitor]: GAVAGE, Strain/Sex: SPRAGUE-DAWLEY/FEMALE, Target Tissue: Type of Lesion: MAMMARY GLAND: ADENOCARCINOMA, Dose [Carcinogen]: 10 MG ONCE, Promoter: NONE USED): 92%, 36%, 61%, p<0.05 | tumour outcome (control, treated, inhibition, significance) (Carcinogen: AZOXYMETHANE, 25843-45-2, Dose [Inhibitor]: 0, 100 PPM IN DIET BEGINNING 2 WK PRIOR TO CARCINOGEN TREATMENT AND CONTINUING FOR DURATION OF STUDY (STUDY DURATION: 56, Route [Inhibitor]: ORAL, Strain/Sex: F344/MALE, Target Tissue: Type of Lesion: COLON: INVASIVE ADENOCARCINOMA, Dose [Carcinogen]: 15 MG/KG 1/WK FOR 2 WK, Promoter: NONE USED): 34%, 11%, 68%, p<0.05 | tumour outcome (control, treated, inhibition, significance) (Carcinogen: AZOXYMETHANE, 25843-45-2, Dose [Inhibitor]: 0, 100 PPM IN DIET BEGINNING 2 WK PRIOR TO CARCINOGEN TREATMENT AND CONTINUING FOR DURATION OF STUDY (STUDY DURATION: 56, Route [Inhibitor]: ORAL, Strain/Sex: F344/MALE, Target Tissue: Type of Lesion: COLON: NONINVASIVE ADENOCARCINOMA, Dose [Carcinogen]: 15 MG/KG 1/WK FOR 2 WK, Promoter: NONE USED): 53%, 53%, 0%, not significant | tumour outcome (control, treated, inhibition, significance) (Carcinogen: AZOXYMETHANE, 25843-45-2, Dose [Inhibitor]: 0, 200 PPM IN DIET BEGINNING 2 WK PRIOR TO CARCINOGEN TREATMENT AND CONTINUING FOR DURATION OF STUDY (STUDY DURATION: 56, Route [Inhibitor]: ORAL, Strain/Sex: F344/MALE, Target Tissue: Type of Lesion: COLON: INVASIVE ADENOCARCINOMA, Dose [Carcinogen]: 15 MG/KG 1/WK FOR 2 WK, Promoter: NONE USED): 34%, 6%, 82%, p<0.01 | tumour outcome (control, treated, inhibition, significance) (Carcinogen: AZOXYMETHANE, 25843-45-2, Dose [Inhibitor]: 0, 200 PPM IN DIET BEGINNING 2 WK PRIOR TO CARCINOGEN TREATMENT AND CONTINUING FOR DURATION OF STUDY (STUDY DURATION: 56, Route [Inhibitor]: ORAL, Strain/Sex: F344/MALE, Target Tissue: Type of Lesion: COLON: NONINVASIVE ADENOCARCINOMA, Dose [Carcinogen]: 15 MG/KG 1/WK FOR 2 WK, Promoter: NONE USED): 53%, 58%, -9%, not significant | tumour outcome (control, treated, inhibition, significance) (Carcinogen: DIETHYLNITROSAMINE, 55-18-5, N-METHYL-N-NITROSOUREA, 684-93-5, N,N'-DIMETHYLHYDRAZINE, 540-73-8, N-BUTYL-N-(4-HYDR, Carcinogen: DIETHYLNITROSAMINE, 55-18-5, N-METHYL-N-NITROSOUREA, 684-93-5, N,N'-DIMETHYLHYDRAZINE, 540-73-8, N-BUTYL-N-(4-HYDR, Dose [Inhibitor]: 0, 50 MG/KG BW IN CORN OIL 3/WK FOR 6 WK BEGINNING POST CARCINOGEN TREATMENT (STUDY DURATION: 28 WK), Route [Inhibitor]: GAVAGE, Strain/Sex: F344/MALE, Target Tissue: Type of Lesion: KIDNEY: RENAL CELL ADENOMA, Dose [Carcinogen]: 100 MG/KG BW DEN ONCE, 20 MG/KG BW MNU ONCE ON D 2, 5, 8 AND 11, 40 MG/KG BW DMH ON D 14, 17, 20 AND 23, 0.05% BHBN I, Dose [Carcinogen]: 100 MG/KG BW DEN ONCE, 20 MG/KG BW MNU ONCE ON D 2, 5, 8 AND 11, 40 MG/KG BW DMH ON D 14, 17, 20 AND 23, 0.05% BHBN I, Promoter: NONE USED): 4/20 (20%), 0/19 (0%), 100%, not calculated | tumour outcome (control, treated, inhibition, significance) (Carcinogen: DIETHYLNITROSAMINE, 55-18-5, N-METHYL-N-NITROSOUREA, 684-93-5, N,N'-DIMETHYLHYDRAZINE, 540-73-8, N-BUTYL-N-(4-HYDR, Carcinogen: DIETHYLNITROSAMINE, 55-18-5, N-METHYL-N-NITROSOUREA, 684-93-5, N,N'-DIMETHYLHYDRAZINE, 540-73-8, N-BUTYL-N-(4-HYDR, Dose [Inhibitor]: 0, 50 MG/KG BW IN CORN OIL 3/WK FOR 6 WK BEGINNING POST CARCINOGEN TREATMENT (STUDY DURATION: 28 WK), Route [Inhibitor]: GAVAGE, Strain/Sex: F344/MALE, Target Tissue: Type of Lesion: LARGE INTESTINE: ADENOMA, Dose [Carcinogen]: 100 MG/KG BW DEN ONCE, 20 MG/KG BW MNU ONCE ON D 2, 5, 8 AND 11, 40 MG/KG BW DMH ON D 14, 17, 20 AND 23, 0.05% BHBN I, Dose [Carcinogen]: 100 MG/KG BW DEN ONCE, 20 MG/KG BW MNU ONCE ON D 2, 5, 8 AND 11, 40 MG/KG BW DMH ON D 14, 17, 20 AND 23, 0.05% BHBN I, Promoter: NONE USED): 6/20 (30%), 1/19 (5%), 83%, p<0.01 | tumour outcome (control, treated, inhibition, significance) (Carcinogen: DIETHYLNITROSAMINE, 55-18-5, N-METHYL-N-NITROSOUREA, 684-93-5, N,N'-DIMETHYLHYDRAZINE, 540-73-8, N-BUTYL-N-(4-HYDR, Carcinogen: DIETHYLNITROSAMINE, 55-18-5, N-METHYL-N-NITROSOUREA, 684-93-5, N,N'-DIMETHYLHYDRAZINE, 540-73-8, N-BUTYL-N-(4-HYDR, Dose [Inhibitor]: 0, 50 MG/KG BW IN CORN OIL 3/WK FOR 6 WK BEGINNING POST CARCINOGEN TREATMENT (STUDY DURATION: 28 WK), Route [Inhibitor]: GAVAGE, Strain/Sex: F344/MALE, Target Tissue: Type of Lesion: LARGE INTESTINE: CARCINOMA, Dose [Carcinogen]: 100 MG/KG BW DEN ONCE, 20 MG/KG BW MNU ONCE ON D 2, 5, 8 AND 11, 40 MG/KG BW DMH ON D 14, 17, 20 AND 23, 0.05% BHBN I, Dose [Carcinogen]: 100 MG/KG BW DEN ONCE, 20 MG/KG BW MNU ONCE ON D 2, 5, 8 AND 11, 40 MG/KG BW DMH ON D 14, 17, 20 AND 23, 0.05% BHBN I, Promoter: NONE USED): 8/20 (40%), 3/19 (16%), 60%, not calculated | tumour outcome (control, treated, inhibition, significance) (Carcinogen: DIETHYLNITROSAMINE, 55-18-5, N-METHYL-NITROSOUREA ;684-93-5, N,N'-DIMETHYLHYDRAZINE, 540-73-8, N-BUTYL-N-(4-HYDROXY, Carcinogen: DIETHYLNITROSAMINE, 55-18-5, N-METHYL-NITROSOUREA ;684-93-5, N,N'-DIMETHYLHYDRAZINE, 540-73-8, N-BUTYL-N-(4-HYDROXY, Dose [Inhibitor]: 0, 50 MG/KG BW IN CORN OIL 3/WK FOR 6 WK BEGINNING POST CARCINOGEN TREATMENT (STUDY DURATION: 28 WK), Route [Inhibitor]: GAVAGE, Strain/Sex: F344/MALE, Target Tissue: Type of Lesion: KIDNEY: NEPHROBLASTOMA, Dose [Carcinogen]: 100 MG/KG BW DEN ONCE, 20 MG/KG BW MNU ONCE ON D 2, 5, 8 AND 11, 40 MG/KG BW DMH ON D 14, 17, 20 AND 23, 0.05% BHBN I, Dose [Carcinogen]: 100 MG/KG BW DEN ONCE, 20 MG/KG BW MNU ONCE ON D 2, 5, 8 AND 11, 40 MG/KG BW DMH ON D 14, 17, 20 AND 23, 0.05% BHBN I, Promoter: NONE USED): 5/20 (25%), 0/19 (0%), 100%, p<0.05 | tumour outcome (control, treated, inhibition, significance) (Carcinogen: DIETHYLNITROSAMINE, 55-18-5, N-METHYL-NITROSOUREA, 684-93-5, N,N'-DIMETHYLHYDRAZINE, 540-73-8, N-BUTYL-N-(4-HYDROX, Carcinogen: DIETHYLNITROSAMINE, 55-18-5, N-METHYL-NITROSOUREA, 684-93-5, N,N'-DIMETHYLHYDRAZINE, 540-73-8, N-BUTYL-N-(4-HYDROX, Dose [Inhibitor]: 0, 50 MG/KG BW IN CORN OIL 3/WK FOR 6 WK BEGINNING POST CARCINOGEN TREATMENT (STUDY DURATION: 28 WK), Route [Inhibitor]: GAVAGE, Strain/Sex: F344/MALE, Target Tissue: Type of Lesion: KIDNEY: RENAL CELL CARCINOMA, Dose [Carcinogen]: 100 MG/KG BW DEN ONCE, 20 MG/KG BW MNU ONCE ON D 2, 5, 8 AND 11, 40 MG/KG BW DMH ON D 14, 17, 20 AND 23, 0.05% BHBN I, Dose [Carcinogen]: 100 MG/KG BW DEN ONCE, 20 MG/KG BW MNU ONCE ON D 2, 5, 8 AND 11, 40 MG/KG BW DMH ON D 14, 17, 20 AND 23, 0.05% BHBN I, Promoter: NONE USED): 1/20 (5%), 0/19 (0%), 100%, not calculated | tumour outcome (control, treated, inhibition, significance) (Carcinogen: N-METHYL-N-NITROSOUREA, 684-93-5, Dose [Inhibitor]: 0, 57 UMOL/KG DIET FOR 25 WK BEGINNING 2 WK PRIOR TO CARCINOGEN DOSE (STUDY DURATION: 25 WK), Route [Inhibitor]: ORAL, Strain/Sex: SPRAGUE-DAWLEY/FEMALE, Target Tissue: Type of Lesion: MAMMARY GLAND: TUMOR, Dose [Carcinogen]: 15 MG/KG BW ONCE, Promoter: NONE USED): 81%, 38%, 53%, p<0.05 | outcome (Carcinogen: N-methyl-N-nitrosourea (684-93-5), Dose [Inhibitor]: 0, 150 mg/kg bw by gavage 2 x a wk for 16 wks of hormones and MNU, study duration 16 wks, Dose [Inhibitor]: 0, 150 mg/kg bw by gavage 2 x a wk for 16 wks of hormones and MNU, study duration 16 wks, Route [Inhibitor]: Oral, Species: Rat, Strain/Sex: Sprague-Dawley/Male, Target Tissue: Type of Lesion: Prostate: Prostatic intraepithelial neoplasia, Dose [Carcinogen]: 150 mg/kg bw once, Promoter: Cyproterone acetate (427-51-0) and testosterone propionate (57-85-2)): dorsolateral prostate: 40% (hormones + mnu); 10% (hormones + mnu + diallyl sulfi
